The text below walks through data of patent US8507290B2, “Water-soluble silsesquioxanes as organic quantum dots for sensing and imaging” (National University of Singapore, priority 2009, dated 2013).

One assay deals with dsDNA and RNA. The following applies: cited from earlier work.
Assay [1] concerns breast cancer cells (MCF-7). The experiment in a line: One-photon and two-photon fluorescent cellular nucleus imaging (CLSM). The following applies: 2 h, signals above 560 nm. The class given is cell-based. Here is the method: One-photon and two-photon fluorescence images of the MCF-7 cells were then obtained.
OPEF imaging was obtained by excitation of the cells at 488 nm and collection of fluorescence above 560 nm under the fixed parameters. […] As nucleolus is the site of ribosomal RNA synthesis, it has the highest concentration of RNA in nucleus.
For TPEF imaging, the dye concentrations are fixed at 1 μM, and the cellular images were acquired by excitation of the cells at near-infrared wavelength (760 nm) and collection of signals above 560 nm.

With SYTO 9, the “light-up response toward dsDNA and RNA (commercial dyes)” value in the assay with dsDNA and RNA is “nearly equal light-up responses toward dsDNA and RNA”.

With `CCCN(CCCN(C)C)c1cc(/C=C2/Sc3ccccc3N2C)c2ccccc2[n+]1-c1ccccc1` [SG, SYBR Green I], the “light-up response toward dsDNA and RNA (commercial dyes)” value in the assay on dsDNA and RNA is “only shows strong light-up response toward dsDNA”. Moreover, the “two-photon fluorescence (TPEF) imaging of nucleus” value in assay [1] (MCF-7, 1 μM dye, excitation at 760 nm) was “does not provide a clear cellular image”. Further, the “one-photon fluorescence (OPEF) imaging: uptake and localisation” value in assay [1] (MCF-7, dye 1 μM (also 0.1 and 0.02 μM), excitation at 488 nm) is “homogenously-stained nucleus pattern”.
